Data reported in patent US10780074B2, “Compounds and uses thereof” (Sunovion Pharmaceuticals Inc., priority 2017, dated 2020).
Where a name gives a salt, the structure may show the parent alone.

Test system: behaviors of compound-treated mice
Assay: Neuropharmacological Assay (SmartCube)
Type: in vivo
Settings: for minimal effective dose: Mus musculus, ip, 0.25 h, dose having 50% or more total activity in SmartCube, i.p., read-out: MED (minimal effective dose); for AD: ADHD (probability that activity matches class) / AG: analgesic (probability that activity matches class) / AX: anxiolytic (probability that activity matches class) / CE: cognitive enhancer (probability that activity matches class) / DP: anti-depressant (probability that activity matches class) / MS: mood stabilizer (probability that activity matches class) / PS: anti-psychotic (probability that activity matches class) / SD: sedative hypnotic (probability that activity matches class) / UN: uncharacterized CNS activity (probability that activity matches class): i.p. 15 min before behavioral test, most efficacious dose(s) of 3 doses
From the text: Neuropharmacological Assay (SmartCube™)
Neurosci. 2011 Sep. 9; 5:103 (doi: 10.3389/fnins.2011.00103) (“Roberds”). As reported in Roberds, because psychiatric diseases generally result from disorders of cell-cell communication or circuitry, intact systems are useful in detecting improvement in disease-relevant endpoints. These endpoints are typically behavioral in nature, often requiring human observation and interpretation. To facilitate testing of multiple compounds for behavioral effects relevant to psychiatric disease, PsychoGenics, Inc. (Tarrytown, N.Y., “PGI”) developed SmartCube™, an automated system in which behaviors of compound-treated mice are captured by digital video and analyzed with computer algorithms. (D. Brunner et al., Drug Discov. Today 2002, 7:S107-S112). PGI Analytical Systems uses data from SmartCube™ to compare the behavioral signature of a test compound to a database of behavioral signatures obtained using a large set of diverse reference compounds. (The composition of the database as well as validation of the method is further described in Roberds). In this way, the neuropharmacological effects of a test compound can be predicted by similarity to major classes of compounds, such as antipsychotics, anxiolytics and antidepressants.
The SmartCube™ system produces an activity signature indicating the probability that the activity of the test compound at the administered dose matches a given class of neuropharmacological agents. (See, e.g., Roberds, FIGS. 2 and 3). The test compound is simultaneously compared against multiple classes of agents; thus, a separate probability is generated for each behavioral effect measured (e.g., anxiolytic activity, analgesic activity, etc.). In the table below, these probabilities are reported for each behavioral effect measured as follows:
Provided compounds were dissolved in a mixture of Pharmasolve™ (N-methyl-2-pyrrolidone), polyethylene glycol and propylene glycol, and were injected i.p. 15 min. before the behavioral test. For each compound, injections were administered at 3 different doses. For each behavioral effect measured, results for the most efficacious dose(s) are presented. In the table below, DP: anti-depressant; AX: anxiolytic; SD: sedative hypnotic; PS: anti-psychotic; MS: mood stabilizer; AD: ADHD; CE: cognitive enhancer; AG: analgesic; UN: uncharacterized CNS activity.
The potency of many of the compounds in the table was also determined in the SmartCube™ system. Test compounds were routinely examined at dose levels of 0.3, 1, 3 10 and 30 mg per kg (mpk), although the dose range was increased or decreased if necessary to obtain a full dose response curve. A compound's minimal effective dose (MED) is a measure of the compounds potency. The MED was defined as the dose (in mpk) having 50% or more total activity in SmartCube.

| Structure (SMILES) | minimal effective dose [mg/kg] | AD: ADHD (probability that activity matches class) | AG: analgesic (probability that activity matches class) | AX: anxiolytic (probability that activity matches class) | CE: cognitive enhancer (probability that activity matches class) | DP: anti-depressant (probability that activity matches class) | MS: mood stabilizer (probability that activity matches class) | PS: anti-psychotic (probability that activity matches class) | SD: sedative hypnotic (probability that activity matches class) | UN: uncharacterized CNS activity (probability that activity matches class) |
| --- | --- | --- | --- | --- | --- | --- | --- | --- | --- | --- |
| CNCC1OCCc2c(-c3ccnnc3)cccc21 (centres unmarked) [Compound 54, N-Methyl-1-(5-(pyridazin-4-yl)isochroman-1-yl)methanamine hydrochloride salt] | 3 to 10 | + (LOQ ≤ + <5%) | + (LOQ ≤ + <5%) | + (LOQ ≤ + <5%) | ++ (5% ≤ ++ <25%) | ++++ (50% ≤ ++++) | + (LOQ ≤ + <5%) | + (LOQ ≤ + <5%) | + (LOQ ≤ + <5%) | + (LOQ ≤ + <5%) |
| NC[C@H]1OCCc2c(-c3c[nH]cn3)cccc21 (single isomer, unassigned) [Compound 113, hydrochloride salt] | 3 to 10 | + (LOQ ≤ + <5%) | ++ (5% ≤ ++ <25%) | ++ (5% ≤ ++ <25%) | + (LOQ ≤ + <5%) | ++ (5% ≤ ++ <25%) | + (LOQ ≤ + <5%) | +++ (25% ≤ +++ <50%) | + (LOQ ≤ + <5%) | +++ (25% ≤ +++ <50%) |
| CNC[C@@H]1OCCc2c(-c3cc(C)nc(C)c3)cccc21 [Compound 124, (R)-1-(5-(2,6-dimethylpyridin-4-yl)isochroman-1-yl)-N-methylmethanamine dihydrochloride] | 10 to 30 | + (LOQ ≤ + <5%) | + (LOQ ≤ + <5%) | + (LOQ ≤ + <5%) | + (LOQ ≤ + <5%) | + (LOQ ≤ + <5%) | + (LOQ ≤ + <5%) | + (LOQ ≤ + <5%) | + (LOQ ≤ + <5%) | + (LOQ ≤ + <5%) |
| CNC[C@@H]1OCCc2c(-c3c[nH]cn3)cccc21 (single isomer, unassigned) [Compound 114, hydrochloride salt] | 10 to 30 | + (LOQ ≤ + <5%) | + (LOQ ≤ + <5%) | ++ (5% ≤ ++ <25%) | + (LOQ ≤ + <5%) | + (LOQ ≤ + <5%) | + (LOQ ≤ + <5%) | + (LOQ ≤ + <5%) | + (LOQ ≤ + <5%) | + (LOQ ≤ + <5%) |
| NC[C@@H]1OCCc2c(-c3ccncc3)cccc21 [Compound 19, (R)-(5-(Pyridin-4-yl)isochroman-1-yl)methanamine hydrochloride salt] | > 30 | + (LOQ ≤ + <5%) | ++ (5% ≤ ++ <25%) | ++ (5% ≤ ++ <25%) | ++ (5% ≤ ++ <25%) | ++ (5% ≤ ++ <25%) | + (LOQ ≤ + <5%) | + (LOQ ≤ + <5%) | + (LOQ ≤ + <5%) | + (LOQ ≤ + <5%) |
| CNC[C@@H]1OCCc2cc(-c3cccnn3)ccc21 (single isomer, unassigned) [Compound 31, hydrochloride] | > 30 | + (LOQ ≤ + <5%) | + (LOQ ≤ + <5%) | ++ (5% ≤ ++ <25%) | + (LOQ ≤ + <5%) | ++ (5% ≤ ++ <25%) | + (LOQ ≤ + <5%) | + (LOQ ≤ + <5%) | + (LOQ ≤ + <5%) | + (LOQ ≤ + <5%) |
| Cc1cc(-c2cccc3c2CCO[C@H]3CN)ccn1 (single isomer, unassigned) [Compound 122, hydrochloride salt] | 10 to 30 | + (LOQ ≤ + <5%) | + (LOQ ≤ + <5%) | ++ (5% ≤ ++ <25%) | + (LOQ ≤ + <5%) | + (LOQ ≤ + <5%) | + (LOQ ≤ + <5%) | + (LOQ ≤ + <5%) | + (LOQ ≤ + <5%) | + (LOQ ≤ + <5%) |
| CNC[C@H]1OCCc2c(-c3ccnc(C)c3)cccc21 (single isomer, unassigned) [Compound 121, hydrochloride salt] | ≤ 3 | ++ (5% ≤ ++ <25%) | + (LOQ ≤ + <5%) | ++ (5% ≤ ++ <25%) | + (LOQ ≤ + <5%) | ++++ (50% ≤ ++++) | + (LOQ ≤ + <5%) | + (LOQ ≤ + <5%) | ++ (5% ≤ ++ <25%) | + (LOQ ≤ + <5%) |
| CNCC1OCCc2c(-c3ccncn3)cccc21 (centres unmarked) [Compound 53, N-Methyl-1-(5-(pyrimidin-4-yl)isochroman-1-yl)methanamine hydrochloride salt] | 3 to 10 | ++ (5% ≤ ++ <25%) | + (LOQ ≤ + <5%) | ++ (5% ≤ ++ <25%) | + (LOQ ≤ + <5%) | ++++ (50% ≤ ++++) | + (LOQ ≤ + <5%) | + (LOQ ≤ + <5%) | + (LOQ ≤ + <5%) | + (LOQ ≤ + <5%) |
| CNC[C@@H]1OCCCc2c(-c3cncs3)cccc21 (single isomer, unassigned) [Compound 168, hydrochloride salt] | ≤ 3 | ++ (5% ≤ ++ <25%) | + (LOQ ≤ + <5%) | ++ (5% ≤ ++ <25%) | + (LOQ ≤ + <5%) | ++++ (50% ≤ ++++) | + (LOQ ≤ + <5%) | + (LOQ ≤ + <5%) | ++ (5% ≤ ++ <25%) | ++ (5% ≤ ++ <25%) |
| NC[C@H]1OCCc2c(-c3cnoc3)cccc21 (single isomer, unassigned) [Compound 87, hydrochloride salt] | ≤ 3 | ++ (5% ≤ ++ <25%) | + (LOQ ≤ + <5%) | ++++ (50% ≤ ++++) | + (LOQ ≤ + <5%) | ++++ (50% ≤ ++++) | + (LOQ ≤ + <5%) | + (LOQ ≤ + <5%) | + (LOQ ≤ + <5%) | + (LOQ ≤ + <5%) |
